Patent publication US11364286B2, “Compositions and methods for the treatment of diseases involving mucin” (priority 2015, dated 2022)
Structures can show the parent of a compound that is named as a salt.

Assays:
[1] = tested on: human ovarian cancer cell line A2780; experiment: Cell viability, SRB assay, 3 days, A2780; assay type: cell-based; set-up: unit not given here; settings: A2780, 3 days
Method: All cells were maintained at 37° C. The cytotoxic effects of cysteamine, bromelain and the chemotherapeutic agent cisplatin were assessed. Each agent was administered to the cells either alone or in combination with either or both of the other agents. All cells were treated for 72 hours with the reagents and the cell populations were assessed using the SRB assay. Where possible, IC50 and ICmax were calculated. […] Cells were subjected to various treatment regimens as indicated for 3 days before SRB assays were performed.

[2] = tested on: MKN45 gastric cancer cells; experiment: Proliferation, SRB assay, 72 hour culture, MKN45; assay type: cell-based, human; settings: combination at the highest concentrations tested
Method: (§1) 5000 cells of each cell line were plated in 96 well plates and grown for 48 hrs at 37° C. in humidified CO2 incubator. After this the medium was replaced with drugs, bromelain, cysteamine and cisplatin in alone or in various combinations. Control wells had medium only. Plates were further incubated for 72 hrs. At the end of incubation proliferation was determined by SRB assay.
(§2) Materials and Method: • 0.4% (w/v) SRB: 1.0 g SRB— Sulforhodamine B sodium salt—(#S1402, SIGMA) in 250 ml of 1% acetic acid (stored at room temperature) • 10% (w/v) TCA: 50 g of Trichloroacetic acid (#T9159, SIGMA) in 500 ml of Milli-Q water (stored at 4° c.) • 10 mM Tris Base: 0.6055 g Tris (Trizma® base, #T6066, SIGMA) in 500 ml of Milli-Q water (stored at 4° c.) • 1% acetic acid: 10 ml of acetic acid in 1000 ml of Milli-Q water.
(§3) 1. After an incubation period of 72 hours, the old medium was discarded and cells were fixed with 200 μl of 10% (w/v) ice-cold TCA (trichloroacetic acid) for 30 minutes at 4° C.
(§4) 2. The plate was washed in distilled water 5 times.
(§5) 3. 100 μl of 0.4% (w/v) sulphorhodamine (SRB) solution was added to each well of the dry 96-well plates and they were allowed staining at room temperature for 10 mins.
4. […]
(§6) 6. The plate was read in a microplate reader (PowerWaveX, BIO-TEK instruments, Inc, USA) with the working wavelength 570 nm. […]

[3] = tested on: HT29 colorectal cancer cells; experiment: Proliferation, SRB assay, 72 hour culture, HT29; assay type: cell-based; settings: individually or in combination
Method: as §1, §2, §3, §4, §5
4. […]
as §6

[4] = tested on: PET mesothelioma cells; experiment: Cell viability, SRB assay, 72 h, PET cells; assay type: cell-based; settings: Cysteamine single agent
Method: (§7) 5000 cells of each cell line were plated in 96 well plates and grown for 48 hrs at 37° C. in humidified CO2 incubator. After this the medium was replaced with drugs, bromelain, cysteamine and cisplatin in alone or in various combinations. Control wells had medium only. Plates were further incubated for 72 hrs. At the end of incubation proliferation was determined by SRB assay. […]
as §6
(§8) The cytotoxic effects of cysteamine, bromelain and the chemotherapeutic agent cisplatin were assessed. […] All cells were treated for 72 hours with the reagents and the cell populations were assessed using the SRB assay. Where possible, IC50 and ICmax were calculated.
(§9) Using Chou and Tallarida Method (Tallarida R J. The interaction index: a measure of drug synergism. Pain 2002; 98: 163-168), the Interaction index (γ) was evaluated for a combination of 2 and 3 drugs (γ=1 (additive) (ADD); γ=<1 (synergistic) (SYN) and γ=>1 (sub-additive) (SUB)).

[5] = tested on: soft mucin from PMP patients; experiment: Disintegration of soft PMP mucin (weight of remnant mucin after incubation with the agents); assay type: biochemical, human; settings: for effect of individual agents on mucin weight over time: Bromelain 300 & 200 μg/ml, NAC 250 mM, Cysteamine 200 mM alone, 0.5-3 h 37°C; for Percentage Disintegration of Mucin Samples: 0 μg/ml BR, negative = gain in weight
Method: Mucin samples from PMP patients were collected and stored under sterile conditions at −80° C. For experiments, the mucin was thawed to room temperature before use. One gram of soft mucin was transferred to a 50 ml centrifuge tube containing 10 ml of either 0.1 M TRIS buffer (pH. 7.0)—controls or similar arrangement containing various concentrations of cysteamine, bromelain or a mixture of the latter two reagents. The concentrations of bromelain investigated ranged from 100-300 μg/ml whilst for cysteamine it was 12.5, 25, 50, 100 and 200 mM. Stock solutions were prepared under sterile conditions in TRIS buffer pH adjusted to 7.0 using 0.1 M Sodium Hydroxide or 0.1 M Hydrochloric acid and the required quantities were added to the respective centrifuge tubes containing the mucin. The tubes were then transferred to a shaking water bath at 37° C. for 2 hours.
At the end of incubation, the remnant mucin was retrieved and weighed. The experiment was carried out using triplicate tubes and readings averaged. All experiments were performed in triplicate.
To a 50 ml centrifuge tube containing 1 g of mucin was added 10 ml of TRIS pH. 7.0 containing 300 μg/ml bromelain+250 mM NAC. Similarly, to 1 g of mucin was added 10 ml of TRIS buffer containing 200 μg/ml bromelain+200 mM cysteamine. For each time interval (0.5, 1.0, 1.5, 2.0, 2.5 and 3.0 h), a total of 6 tubes in triplicate were prepared. The controls contained, TRIS, Bromelain (300 μg/ml & 200 μg/ml), NAC (250 mM) and Cysteamine (200 mM) with mucin (also prepared for each time interval, in triplicates).
The tubes were incubated at 37° C., in a shaker water bath, sample tubes were retrieved at time interval of 0.5 hour and remnant mucin was carefully retrieved and weighed. Percentage weight lost was calculated as follows:
Percentage weight lost (disintegration)=[mucin weight (at 0 hr)−mucin weight (2 or 3 hr)]/mucin weight (at 0 hr).
The experiment was set up as outlined above in Examples 1 and 2 above, however using 10, 20, 40, 60, 80 & 100 μg/ml bromelain with varying concentrations of cysteamine (10, 20, 30, 40 & 50 mM) and the incubation was carried out at 37° C. in a shaker for 3 hours. The controls contained TRIS buffer, 10, 20, 40, 60, 80 & 100 μg/ml bromelain and 10, 20, 30, 40 & 50 mM cysteamine. Each tube was prepared in triplicate and readings averaged.
Experiments were set up as before using 1 g of mucin in a 50 ml centrifuge tube containing either TRIS buffer (pH 7.0), 50 μg/ml bromelain, 50 mM cysteamine or a combination of the last two agents. Six samples from each grades of mucin (soft, semi-hard and hard) were chosen for the experiment and the tubes were incubated in a shaker water bath at 37° C. for duration of 3 hours. The remnant mucin were carefully retrieved and weighed.

[6] = tested on: human colorectal cancer cell line HT295M12; experiment: Cell viability, SRB assay, 3 days, HT295M12; assay type: cell-based; settings: Column B=Cysteamine 1 mg/ml (FIG. 19)
Method: (§10) Mesothelioma (YOU and PET), gastric (KATO-III), Colorectal (LS174T and HT295m21), pancreatic (ASPC-1 and CFPAC) and ovarian (A2780) cell lines were grown in RPMI supplemented with 10% FBS, 100 U/ml penicillin and 100 μg/ml streptomycin. All cells were maintained at 37° C.
(§11) The cytotoxic effects of cysteamine, bromelain and the chemotherapeutic agent cisplatin were assessed. Each agent was administered to the cells either alone or in combination with either or both of the other agents. All cells were treated for 72 hours with the reagents and the cell populations were assessed using the SRB assay. Where possible, IC50 and ICmax were calculated.
Data from two independent experiments are represented as mean±SD (6 replicates for each treatment group).

[7] = tested on: YOU mesothelioma cells; experiment: Cell viability, SRB assay, 72 h, YOU cells; assay type: cell-based; settings: Cysteamine single agent
Method: as §7, §6, §8, §9

[8] = tested on: human gastric cancer cell line KATO-III; experiment: Cell viability, SRB assay, 3 days, KATO-III; assay type: cell-based; settings: Cysteamine only
Method: as §10, §11
Cells were subjected to various treatment regimens as indicated for 3 days before SRB assays were performed. Data are represented as mean±SD (6 replicates for each treatment group).

[9] = tested on: hard mucin from PMP patients; experiment: Disintegration of hard PMP mucin (weight of remnant mucin); assay type: biochemical, human; settings: 50 mM cysteamine, alone or with 50 μg/ml bromelain; 37°C, 3 hours
[10] = FIG. 22A, 0.25 mg/ml, lowest of 0.25-1 mg/ml
[11] = FIG. 22A, 1 mg/ml, highest of 0.25-1 mg/ml
[12] = FIG. 22A, middle concentration of 0.25-1 mg/ml, value not given
[13] = FIG. 22B, 0.25 mg/ml, lowest of 0.25-1 mg/ml
[14] = FIG. 22B, 1 mg/ml, highest of 0.25-1 mg/ml
[15] = FIG. 22B, middle concentration of 0.25-1 mg/ml, value not given
[16] = FIG. 22C, 0.25 mg/ml, lowest of 0.25-1 mg/ml
[17] = FIG. 22C, 1 mg/ml, highest of 0.25-1 mg/ml
[18] = FIG. 22C, middle concentration of 0.25-1 mg/ml, value not given

NCCS [Cysteamine dihydrochloride]
Mean Diff. (Holm-Sidak's multiple comparisons test), control vs. treatment [1, 10]: 55.20
Mean Diff. (Holm-Sidak's multiple comparisons test), control vs. treatment [1, 11]: 94.04
Mean Diff. (Holm-Sidak's multiple comparisons test), control vs. treatment [1, 12]: 74.31

NCCS [Cysteamine, cysteamine]
effect on in vitro growth [2]: no or little effect
inhibition of growth [3]: no or little effect
IC50 (as Cysteamine) [4]: 781 µg/mL
ICmax ([4]; at 11.3 mg/ml cysteamine): 85% at 11.3 mg/ml
effect of single agents on mucin weight ([5]; Bromelain 100, 200, 300 μg/ml or Cysteamine 12.5-200 mM as single agents, 2 h 37°C): only showed the mucin gaining weight, indicating hydration
effect of individual agents on mucin weight over time [5]: only showed hydration initially, with subsequent slight disintegration and hydration
Percentage Disintegration of Mucin Samples ([5]; CIS 12.5 mM, 2 h 37°C): −117%
Percentage Disintegration of Mucin Samples ([5]; CIS 25 mM, 2 h 37°C): −115%
Percentage Disintegration of Mucin Samples ([5]; CIS 50 mM, 2 h 37°C): −100%
Percentage Disintegration of Mucin Samples ([5]; CIS 100 mM, 2 h 37°C): −111%
Percentage Disintegration of Mucin Samples ([5]; CIS 200 mM, 2 h 37°C): −86%
Mean Diff. (Holm-Sidak's multiple comparisons test), control vs. treatment [1, 10]: 40.75
Mean Diff. (Holm-Sidak's multiple comparisons test), control vs. treatment [1, 11]: 87.12
Mean Diff. (Holm-Sidak's multiple comparisons test), control vs. treatment [1, 12]: 61.62
Mean Diff. (Holm-Sidak's multiple comparisons test), control vs. treatment [1, 13]: 30.75
Mean Diff. (Holm-Sidak's multiple comparisons test), control vs. treatment [1, 14]: 81.49
Mean Diff. (Holm-Sidak's multiple comparisons test), control vs. treatment [1, 15]: 53.01
Mean Diff. (Holm-Sidak's multiple comparisons test), control vs. treatment [1, 16]: 55.93
Mean Diff. (Holm-Sidak's multiple comparisons test), control vs. treatment [1, 17]: 88.77
Mean Diff. (Holm-Sidak's multiple comparisons test), control vs. treatment [1, 18]: 70.70
Mean Diff., Column A (control) vs. Column B [6]: 9.610
IC50 (as Cysteamine) [7]: 560 µg/mL
ICmax ([7]; at 11.3 mg/ml cysteamine): 94% at 11.3 mg/ml
Mean Diff., Column A (control) vs. Column B ([8]; 0.3 mg/ml (FIG. 20B, Table 14B)): −1.313
Mean Diff., Column A (control) vs. Column B ([8]; 0.5 mg/ml (FIG. 20A, Table 14A)): 21.10
Mean Diff., Column A (control) vs. Column B ([8]; 0.5 mg/ml (FIG. 20C, Table 14C)): 49.64
hydration of hard mucin [9]: dramatic percentage of hydration

N[C@@H](CS)C(=O)O [L-Cysteine]
Mean Diff. (Holm-Sidak's multiple comparisons test), control vs. treatment [1, 13]: 10.30
Mean Diff. (Holm-Sidak's multiple comparisons test), control vs. treatment [1, 14]: 51.11
Mean Diff. (Holm-Sidak's multiple comparisons test), control vs. treatment [1, 15]: 25.30

N[C@@H](CCC(=O)N[C@@H](CS)C(=O)NCC(=O)O)C(=O)O [L-Glutathione reduced]
Mean Diff. (Holm-Sidak's multiple comparisons test), control vs. treatment [1, 16]: 25.68
Mean Diff. (Holm-Sidak's multiple comparisons test), control vs. treatment [1, 17]: 32.71
Mean Diff. (Holm-Sidak's multiple comparisons test), control vs. treatment [1, 18]: 19.54

CC(=O)N[C@@H](CS)C(=O)O [NAC, N-acetyl cysteine]
effect of individual agents on mucin weight over time [5]: only showed hydration initially, with subsequent slight disintegration and hydration
Mean Diff. (Holm-Sidak's multiple comparisons test), control vs. treatment [1, 10]: 20.45
Mean Diff. (Holm-Sidak's multiple comparisons test), control vs. treatment [1, 11]: 23.92
Mean Diff. (Holm-Sidak's multiple comparisons test), control vs. treatment [1, 12]: 18.80
Mean Diff. (Holm-Sidak's multiple comparisons test), control vs. treatment [1, 13]: 15.35
Mean Diff. (Holm-Sidak's multiple comparisons test), control vs. treatment [1, 14]: 17.73
Mean Diff. (Holm-Sidak's multiple comparisons test), control vs. treatment [1, 15]: 9.290
Mean Diff. (Holm-Sidak's multiple comparisons test), control vs. treatment [1, 16]: 25.62
Mean Diff. (Holm-Sidak's multiple comparisons test), control vs. treatment [1, 17]: 30.51
Mean Diff. (Holm-Sidak's multiple comparisons test), control vs. treatment [1, 18]: 18.03
